From publication PMC8619068, “Transformation of Tetracycline by Manganese Peroxidase from Phanerochaete chrysosporium” (Molecules, 2021) come the findings set out here.

The assay has as its system T1, manganese peroxidase (MnP).
T1 construct: gene MNP1; native secreted enzyme purified from culture fluid (ultrafiltration, DEAE, Sephadex G-75); single band on SDS-PAGE
As to the kind of experiment: HPLC-UV ([…] nm) of residual tetracycline; non-linear Michaelis-Menten fit. Format: biochemical, Phanerodontia chrysosporium. The conditions noted are these: MnSO4 0.1 mmol/L, H2O2 0.2 mmol/L, MnP 40 U/L, tartrate buffer 0.05 mol/L pH 4.5, 37 °C (general removal assay); oxidation mediated by Mn3+.

SMILES strings stand for the structures.

The term Km denotes the substrate concentration at which the rate is half of its maximum.

As for `CN(C)[C@@H]1C(=O)C(C(N)=O)=C(O)[C@@]2(O)C(=O)C3=C(O)c4c(O)cccc4[C@@](C)(O)[C@H]3C[C@@H]12` [TC, tetracycline], the Km was 238.23 mg/L.
